Experiments:
[1] = molecular target: Kv1.3 potassium channel (Homo sapiens (Human), UniProt P22001); assay: Kv1.3 potassium channel blocker activity, automated whole-cell patch clamp in CHO-K1 cells stably expressing Kv1.3; assay type: cell-based; conditions: Patchliner patch clamp
Method: Example 21. Evaluation of Kv1.3 Potassium Channel Blocker Activities
This assay is used to evaluate the disclosed compounds' activities as Kv1.3 potassium channel blockers.
CHO-K1 cells stably expressing Kv1.3 were grown in DMEM containing 10% heat-inactivated FBS, 1 mM sodium pyruvate, 2 mM L-glutamine, and G418 (500 μg/ml). Cells were grown in culture flasks at 37° C. in a 5% C02-humidified incubator.
(§1) The cells were bathed in an extracellular solution containing 140 mM NaCl, 4 mM KCl, 2 mM CaCl2), 1 mM MgCl2, 5 mM glucose, 10 mM HEPES; pH adjusted to 7.4 with NaOH; 295-305 mOsm. The internal solution contained 50 mM KCl, 10 mM NaCl, 60 mM KF, 20 mM EGTA, 10 mM HEPES; pH adjusted to 7.2 with KOH; 285 mOsm. All compounds were dissolved in DMSO at 30 mM. Compound stock solutions were freshly diluted with external solution to concentrations of 30 nM, 100 nM, 300 nM, 1 μM, 3 μM, 10 μM, 30 μM and 100 μM. The highest content of DMSO (0.3%) was present in 100 μM.
The currents were evoked by applying 100 ms depolarizing pulses from −90 mV (holding potential) to +40 mV were applied with 0.1 Hz frequency. Control (compound-free) and compound pulse trains for each compound concentration applied contained 20 pulses. 10-second breaks were used between pulse trains (see Table A below).
Whole-cell current recordings and compound application were enabled by means of an automated patch clamp platform Patchliner (Nanion Technologies GmbH). EPC 10 patch clamp amplifier (HEKA Elektronik Dr. Schulze GmbH) along with Patchmaster software (HEKA Elektronik Dr. Schulze GmbH) was used for data acquisition. Data were sampled at 10 kHz without filtering. Passive leak currents were subtracted online using a P/4 procedure (HEKA Elektronik Dr. Schulze GmbH). Increasing compound concentrations were applied consecutively to the same cell without washouts in between. Total compound incubation time before the next pulse train was not longer than 10 seconds. Peak current inhibition was observed during compound equilibration.
(§2) AUC and peak values were obtained with Patchmaster (HEKA Elektronik Dr. Schulze GmbH). To determine IC50, the last single pulse in the pulse train corresponding to a given compound concentration was used. Obtained AUC and peak values in the presence of compound were normalized to control values in the absence of compound. Using Origin (OridinLab), IC50 was derived from data fit to Hill equation: Icompound/Icontrol=(100-A)/(1+([compound]/IC50)nH)+A, where IC50 value is the concentration at which current inhibition is half-maximal, [compound] is the applied compound concentration, A is the fraction of current that is not blocked and nH is the Hill coefficient.

[2] = molecular target: hERG channel (Homo sapiens (Human), UniProt Q12809); assay: hERG electrophysiology, automated whole-cell patch clamp in CHO-K1 cells stably expressing hERG; assay type: cell-based; conditions: Patchliner patch clamp
Method: Example 22. Evaluation of hERG Activities
This assay is used to evaluate the disclosed compounds's inhibition activities against the hERG channel.
This assay is used to evaluate the disclosed compounds' inhibition activities against the hERG channel.
CHO-K1 cells stably expressing hERG were grown in Ham's F-12 Medium with glutamine containing 10% heat-inactivated FBS, 1% penicillin/streptomycin, hygromycin (100 μg/ml) and G418 (100 μg/ml). Cells were grown in culture flasks at 37° C. in a 5% CO2— humidified incubator.
as §1, with “Glucose,” for “glucose,”
The voltage protocol (see Table B) was designed to simulate voltage changes during a cardiac action potential with a 300 ms depolarization to +20 mV (analogous to the plateau phase of the cardiac action potential), a repolarization for 300 ms to −50 mV (inducing a tail current) and a final step to the holding potential of −80 mV. The pulse frequency was 0.3 Hz. Control (compound-free) and compound pulse trains for each compound concentration applied contained 70 pulses.
Whole-cell current recordings and compound application were enabled by means of an automated patch clamp platform Patchliner (Nanion). EPC 10 patch clamp amplifier (HEKA) along with Patchmaster software (HEKA Elektronik Dr. Schulze GmbH) was used for data acquisition. Data were sampled at 10 kHz without filtering. Increasing compound concentrations were applied consecutively to the same cell without washouts in between.
as §2, with “PEAK” for “peak”, “IC50” for “IC50,”, “Icompound/Icontrol=(100−A)/(1+([compound]/IC50)nH)+A,” for “Icompound/Icontrol=(100-A)/(1+([compound]/IC50)nH)+A,”, “IC50” for “IC50 value”

Sequence of Kv1.3 potassium channel (P22001 whole entry): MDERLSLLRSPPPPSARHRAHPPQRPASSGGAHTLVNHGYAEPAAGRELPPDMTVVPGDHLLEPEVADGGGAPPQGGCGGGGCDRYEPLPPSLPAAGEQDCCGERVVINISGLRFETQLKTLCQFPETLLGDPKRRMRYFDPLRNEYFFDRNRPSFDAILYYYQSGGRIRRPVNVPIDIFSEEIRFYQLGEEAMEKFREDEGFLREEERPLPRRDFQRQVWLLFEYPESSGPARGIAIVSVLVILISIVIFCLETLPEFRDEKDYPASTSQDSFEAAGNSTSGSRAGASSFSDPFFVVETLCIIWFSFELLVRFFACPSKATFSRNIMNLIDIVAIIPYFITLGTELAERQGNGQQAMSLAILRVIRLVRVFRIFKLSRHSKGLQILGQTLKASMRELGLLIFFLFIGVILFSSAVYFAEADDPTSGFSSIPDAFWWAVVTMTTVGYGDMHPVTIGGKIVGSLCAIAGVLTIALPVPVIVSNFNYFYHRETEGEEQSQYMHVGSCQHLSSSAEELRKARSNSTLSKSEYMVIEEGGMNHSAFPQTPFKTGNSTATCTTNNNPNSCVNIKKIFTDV
Sequence of hERG channel (Q12809 whole entry): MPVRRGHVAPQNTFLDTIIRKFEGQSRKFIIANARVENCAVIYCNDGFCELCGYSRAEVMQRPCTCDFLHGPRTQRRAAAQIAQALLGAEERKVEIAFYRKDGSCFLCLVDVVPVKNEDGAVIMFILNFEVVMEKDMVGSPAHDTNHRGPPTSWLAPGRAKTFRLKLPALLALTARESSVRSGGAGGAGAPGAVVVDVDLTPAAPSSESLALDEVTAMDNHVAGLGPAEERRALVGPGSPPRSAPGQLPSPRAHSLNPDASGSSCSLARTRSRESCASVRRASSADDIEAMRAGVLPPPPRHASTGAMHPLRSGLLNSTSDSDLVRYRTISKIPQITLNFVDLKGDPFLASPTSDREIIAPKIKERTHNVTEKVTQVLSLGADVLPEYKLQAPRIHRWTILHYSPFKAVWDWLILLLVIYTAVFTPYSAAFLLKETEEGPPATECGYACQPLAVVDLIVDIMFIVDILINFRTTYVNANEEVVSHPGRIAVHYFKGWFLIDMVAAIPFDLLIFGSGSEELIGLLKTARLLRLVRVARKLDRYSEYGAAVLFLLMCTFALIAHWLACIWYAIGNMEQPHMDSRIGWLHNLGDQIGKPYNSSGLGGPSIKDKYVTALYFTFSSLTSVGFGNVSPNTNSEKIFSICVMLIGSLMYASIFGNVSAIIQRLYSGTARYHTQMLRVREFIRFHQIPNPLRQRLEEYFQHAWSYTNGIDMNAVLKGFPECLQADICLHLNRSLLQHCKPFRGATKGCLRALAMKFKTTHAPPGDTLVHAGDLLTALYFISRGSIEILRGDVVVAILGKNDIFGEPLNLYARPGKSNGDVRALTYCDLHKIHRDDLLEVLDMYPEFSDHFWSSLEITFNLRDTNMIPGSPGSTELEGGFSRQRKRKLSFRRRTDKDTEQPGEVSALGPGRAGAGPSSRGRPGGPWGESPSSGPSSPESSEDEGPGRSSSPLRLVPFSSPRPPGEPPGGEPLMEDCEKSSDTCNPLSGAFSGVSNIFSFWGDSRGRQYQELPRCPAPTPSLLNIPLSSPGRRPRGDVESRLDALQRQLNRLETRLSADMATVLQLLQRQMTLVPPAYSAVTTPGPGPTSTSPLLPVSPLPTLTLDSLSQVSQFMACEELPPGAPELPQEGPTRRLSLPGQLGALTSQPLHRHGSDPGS

Compound | IC50 [1] [µM] | IC50 [2] [µM]
O=C(CC1CN[C@@H](c2c(O)ccc(Cl)c2Cl)C1)N1CC[C@@H](O)C1 (stereo partly drawn) [Compound 39, 2-((5R)-5-(2,3-dichloro-6-hydroxyphenyl)pyrrolidin-3-yl)-1-((R)-3-hydroxypyrrolidin-1-yl)ethan-1-one] | < 0.1 | > 100
O=C(CC1CN[C@@H](c2c(O)ccc(Cl)c2Cl)C1)N1CC[C@H](O)C1 (stereo partly drawn) [Compound 40, 2-((5R)-5-(2,3-dichloro-6-hydroxyphenyl)pyrrolidin-3-yl)-1-((S)-3-hydroxypyrrolidin-1-yl)ethan-1-one] | < 1 | > 100
O=C(CO)NC[C@@H]1CN[C@@H](c2c(O)ccc(Cl)c2Cl)C1 [Compound 48, N-{[(3S,5R)-5-(2,3-dichloro-6-hydroxyphenyl)pyrrolidin-3-yl]methyl}-2-hydroxyacetamide] | < 1 | > 30
NC(=O)C[C@@H]1CC[C@H](c2c(O)ccc(Cl)c2Cl)N1 [Compound 53, 2-((2S,5R)-5-(2,3-dichloro-6-hydroxyphenyl)pyrrolidin-2-yl)acetamide] | < 1 | > 100
Oc1ccc(Cl)c(Cl)c1[C@H]1C[C@@H](Cc2cn[nH]c2)CN1 [Compound 54, 3,4-dichloro-2-[(2R,4R)-4-(1H-pyrazol-4-ylmethyl)pyrrolidin-2-yl] phenol] | < 0.1 | > 10
Oc1ccc(Cl)c(Cl)c1[C@H]1C[C@@H](Cc2cc[nH]n2)CN1 [Compound 55, 2-((2R,4S)-4-((1H-pyrazol-3-yl)methyl)pyrrolidin-2-yl)-3,4-dichlorophenol] | < 1 | > 10
CC1(O)CN(C(=O)C[C@H]2CN[C@@H](c3c(O)ccc(Cl)c3Cl)C2)C1 [Compound 61, 2-((3S,5R)-5-(2,3-dichloro-6-hydroxyphenyl)pyrrolidin-3-yl)-1-(3-hydroxy-3-methylazetidin-1-yl)ethan-1-one] | < 0.1 | > 100
C[C@H](O)CNC(=O)C[C@H]1CN[C@@H](c2c(O)ccc(Cl)c2Cl)C1 [Compound 65, 2-((3S,5R)-5-(2,3-dichloro-6-hydroxyphenyl)pyrrolidin-3-yl)-N-((S)-2-hydroxypropyl)acetamide] | < 0.1 | > 100
CC(C)(O)CNC(=O)C[C@H]1CN[C@@H](c2c(O)ccc(Cl)c2Cl)C1 [Compound 66, 2-((3S,5R)-5-(2,3-dichloro-6-hydroxyphenyl)pyrrolidin-3-yl)-N-(2-hydroxy-2-methylpropyl)acetamide] | < 1 | > 100
O=C(C[C@H]1CN[C@@H](c2c(O)ccc(Cl)c2Cl)C1)N1CC[C@@H]1CO [Compound 67, 2-((3S,5R)-5-(2,3-dichloro-6-hydroxyphenyl)pyrrolidin-3-yl)-1-((R)-2-(hydroxymethyl)azetidin-1-yl)ethan-1-one] | < 1 | > 100
O=C(C[C@H]1CN[C@@H](c2c(O)ccc(Cl)c2Cl)C1)N1CC[C@H]1CO [Compound 68, 2-((3S,5R)-5-(2,3-dichloro-6-hydroxyphenyl)pyrrolidin-3-yl)-1-((S)-2-(hydroxymethyl)azetidin-1-yl)ethan-1-one] | < 1 | > 100

Further lines, with some results ahead:

IC50 [1] [µM] | Compound | IC50 [2] [µM]
< 1 | CN(C)C(=O)C[C@H]1CN[C@@H](c2c(O)ccc(Cl)c2Cl)C1 [Compound 41, 2-((3S,5R)-5-(2,3-dichloro-6-hydroxyphenyl)pyrrolidin-3-yl)-N,N-dimethyalcetamide] | > 30
< 0.1 | CNC(=O)C[C@H]1CN[C@@H](c2c(O)ccc(Cl)c2Cl)C1 [Compound 42, 2-((3S,5R)-5-(2,3-dichloro-6-hydroxyphenyl)pyrrolidin-3-yl)-N-methylacetamide] | > 30
< 0.1 | O=C(C[C@H]1CN[C@@H](c2c(O)ccc(Cl)c2Cl)C1)N1CC(O)(CO)C1 [Compound 43, 2-((3S,5R)-5-(2,3-dichloro-6-hydroxyphenyl)pyrrolidin-3-yl)-1-(3-hydroxy-3-(hydroxymethyl)azetidin-1-yl)ethan-1-one] | > 100
< 1 | O=C(CO)NC[C@H]1CN[C@@H](c2c(O)ccc(Cl)c2Cl)C1 [Compound 49, N-(((3R,5R)-5-(2,3-dichloro-6-hydroxyphenyl)pyrrolidin-3-yl)methyl)-2-hydroxyacetamide] | > 100
< 1 | CC(C)(C(N)=O)[C@H]1CN[C@@H](c2c(O)ccc(Cl)c2Cl)C1 [Compound 52, 2-[(3S,5R)-5-(2,3-dichloro-6-hydroxyphenyl)pyrrolidin-3-yl]-2-methylpropanamide] | > 30
< 0.1 | O=C(C[C@H]1CN[C@@H](c2c(O)ccc(Cl)c2Cl)C1)N1CC(O)C1 [Compound 56, 2-((3S,5R)-5-(2,3-dichloro-6-hydroxyphenyl)pyrrolidin-3-yl)-1-(3-hydroxyazetidin-1-yl)ethan-1-one] | > 100
< 1 | O=C(C[C@H]1CN[C@@H](c2c(O)ccc(Cl)c2Cl)C1)N1CCC[C@@H](O)C1 [Compound 58, 2-((3S,5R)-5-(2,3-dichloro-6-hydroxyphenyl)pyrrolidin-3-yl)-1-((R)-3-hydroxypipeiridn-1-yl)ethan-1-one] | > 30
< 0.1 | C[C@H](CO)NC(=O)C[C@H]1CN[C@@H](c2c(O)ccc(Cl)c2Cl)C1 [Compound 63, 2-((3S,5R)-5-(2,3-dichloro-6-hydroxyphenyl)pyrrolidin-3-yl)-N-((R)-1-hydroxypropan-2-yl)acetamide] | > 100
< 0.1 | C[C@@H](O)CNC(=O)C[C@H]1CN[C@@H](c2c(O)ccc(Cl)c2Cl)C1 [Compound 64, 2-((3S,5R)-5-(2,3-dichloro-6-hydroxyphenyl)pyrrolidiin-3-yl)-N-((R)-2-hydroxypropyl)acetamide] | > 100
< 1 | CC(C)(CO)NC(=O)C[C@H]1CN[C@@H](c2c(O)ccc(Cl)c2Cl)C1 [Compound 71, 2-((3S,5R)-5-(2,3-dichloro-6-hydroxyphenyl)pyrrolidin-3-yl)-N-(1-hydroxy-2-methylpropan-2-yl)acetamide] | > 100

Source: US20240368078A1, “ARYL HETEROCYCLIC COMPOUNDS AS Kv1.3 POTASSIUM SHAKER CHANNEL BLOCKERS” (D.E. SHAW RESEARCH, LLC, priority 2021, published 2024)
